Source: PubChem BioAssay AID1963437 (Molecular Pharmacology Branch, DTP, NCI, 2024)
pIC50: −log10 of the molar value.

System: OVCAR-8 complex spheroid, growth inhibition
Assay: Anticancer human tumor OVCAR-8 cell line growth inhibition [Asc];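 note: spheroids exposed to agents for 7 days before readout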;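 for viability, T/C: percent viability relative to DMSO vehicle wells taken as 100%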
Conditions: for viability, T/C: stronger effect = lower value
Method in brief: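 Spheroid model: tumor line + HUVEC + hMSC. Single agents and combinations; top conc. at/near clinical Cmax (10 microM if undetermined), half-log dilutions. DMSO stocks at 800-fold test concentration.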

[1] = curve of first compound, second compound 0.00949 µM
[2] = curve of first compound, second compound 0.03 µM
[3] = curve of first compound, second compound 0.0949 µM
[4] = curve of first compound, second compound 0.3 µM
[5] = curve of first compound, second compound 0.949 µM
[6] = curve of first compound, second compound 3 µM
[7] = second compound 0.00949 µM, first compound 0.0316 µM
[8] = second compound 0.00949 µM, first compound 0.1 µM
[9] = second compound 0.00949 µM, first compound 0.316 µM
[10] = second compound 0.00949 µM, first compound 1 µM
[11] = second compound 0.00949 µM, first compound 3.16 µM
[12] = second compound 0.00949 µM, first compound 10 µM
[13] = second compound 0.03 µM, first compound 0.0316 µM
[14] = second compound 0.03 µM, first compound 0.1 µM
[15] = second compound 0.03 µM, first compound 0.316 µM
[16] = second compound 0.03 µM, first compound 1 µM
[17] = second compound 0.03 µM, first compound 3.16 µM
[18] = second compound 0.03 µM, first compound 10 µM
[19] = second compound 0.0949 µM, first compound 0.0316 µM
[20] = second compound 0.0949 µM, first compound 0.1 µM
[21] = second compound 0.0949 µM, first compound 0.316 µM
[22] = second compound 0.0949 µM, first compound 1 µM
[23] = second compound 0.0949 µM, first compound 3.16 µM
[24] = second compound 0.0949 µM, first compound 10 µM
[25] = second compound 0.3 µM, first compound 0.0316 µM
[26] = second compound 0.3 µM, first compound 0.1 µM
[27] = second compound 0.3 µM, first compound 0.316 µM
[28] = second compound 0.3 µM, first compound 1 µM
[29] = second compound 0.3 µM, first compound 3.16 µM
[30] = second compound 0.3 µM, first compound 10 µM
[31] = second compound 0.949 µM, first compound 0.0316 µM
[32] = second compound 0.949 µM, first compound 0.1 µM
[33] = second compound 0.949 µM, first compound 0.316 µM
[34] = second compound 0.949 µM, first compound 1 µM
[35] = second compound 0.949 µM, first compound 3.16 µM
[36] = second compound 0.949 µM, first compound 10 µM
[37] = second compound 3 µM, first compound 0.0316 µM
[38] = second compound 3 µM, first compound 0.1 µM
[39] = second compound 3 µM, first compound 0.316 µM
[40] = second compound 3 µM, first compound 1 µM
[41] = second compound 3 µM, first compound 3.16 µM
[42] = second compound 3 µM, first compound 10 µM

## C=CC(=O)N1CCN(c2nc(=O)n(-c3c(C)ccnc3C(C)C)c3nc(-c4c(O)cccc4F)c(F)cc23)C(C)C1 (stereo unspecified) + CCN1C(C(=O)NC23CCC(C(=O)O)(CC2)CC3)C(c2cccc(Cl)c2F)C2(C(=O)Nc3cc(Cl)ccc32)C12CCCCC2
[1]
  pIC50: < 5.00
[2]
  pIC50: < 5.00
[3]
  pIC50: < 5.00
[4]
  pIC50: < 5.00
[5]
  pIC50: < 5.00
[6]
  pIC50: < 5.00
[7]
  viability, T/C: 94.2%
[8]
  viability, T/C: 89.9%
[9]
  viability, T/C: 94.7%
[10]
  viability, T/C: 81.7%
[11]
  viability, T/C: 89.3%
[12]
  viability, T/C: 100%
[13]
  viability, T/C: 101%
[14]
  viability, T/C: 90.6%
[15]
  viability, T/C: 85.3%
[16]
  viability, T/C: 76.8%
[17]
  viability, T/C: 102%
[18]
  viability, T/C: 102%
[19]
  viability, T/C: 101%
[20]
  viability, T/C: 78.6%
[21]
  viability, T/C: 88%
[22]
  viability, T/C: 74.2%
[23]
  viability, T/C: 86.1%
[24]
  viability, T/C: 116%
[25]
  viability, T/C: 88%
[26]
  viability, T/C: 96.7%
[27]
  viability, T/C: 86.3%
[28]
  viability, T/C: 93.7%
[29]
  viability, T/C: 88.2%
[30]
  viability, T/C: 106%
[31]
  viability, T/C: 87.3%
[32]
  viability, T/C: 103%
[33]
  viability, T/C: 102%
[34]
  viability, T/C: 90.8%
[35]
  viability, T/C: 104%
[36]
  viability, T/C: 115%
[37]
  viability, T/C: 124%
[38]
  viability, T/C: 103%
[39]
  viability, T/C: 101%
[40]
  viability, T/C: 106%
[41]
  viability, T/C: 120%
[42]
  viability, T/C: 137%

## C#Cc1c(F)ccc2cc(O)cc(-c3ncc4c(N5CC6CCC(C5)N6)nc(OCC56CCCN5CC(F)C6)nc4c3F)c12 (stereo unspecified) + CCN1C(C(=O)NC23CCC(C(=O)O)(CC2)CC3)C(c2cccc(Cl)c2F)C2(C(=O)Nc3cc(Cl)ccc32)C12CCCCC2
[1]
  pIC50: < 5.00
[2]
  pIC50: < 5.00
[3]
  pIC50: < 5.00
[4]
  pIC50: < 5.00
[5]
  pIC50: < 5.00
[6]
  pIC50: < 5.00
[7]
  viability, T/C: 91.7%
[8]
  viability, T/C: 86.9%
[9]
  viability, T/C: 93.3%
[10]
  viability, T/C: 95.2%
[11]
  viability, T/C: 95.5%
[12]
  viability, T/C: 89.3%
[13]
  viability, T/C: 114%
[14]
  viability, T/C: 96.3%
[15]
  viability, T/C: 85.1%
[16]
  viability, T/C: 97.3%
[17]
  viability, T/C: 90.1%
[18]
  viability, T/C: 91.5%
[19]
  viability, T/C: 93.2%
[20]
  viability, T/C: 82.2%
[21]
  viability, T/C: 94.4%
[22]
  viability, T/C: 84%
[23]
  viability, T/C: 101%
[24]
  viability, T/C: 101%
[25]
  viability, T/C: 79.5%
[26]
  viability, T/C: 86.8%
[27]
  viability, T/C: 84.2%
[28]
  viability, T/C: 91.7%
[29]
  viability, T/C: 96.5%
[30]
  viability, T/C: 98.2%
[31]
  viability, T/C: 93.5%
[32]
  viability, T/C: 107%
[33]
  viability, T/C: 90.8%
[34]
  viability, T/C: 92.3%
[35]
  viability, T/C: 103%
[36]
  viability, T/C: 107%
[37]
  viability, T/C: 108%
[38]
  viability, T/C: 93%
[39]
  viability, T/C: 105%
[40]
  viability, T/C: 115%
[41]
  viability, T/C: 110%
[42]
  viability, T/C: 112%

## NC1CCC(NC2CC2c2ccccc2)CC1 (stereo unspecified) + CCN1C(C(=O)NC23CCC(C(=O)O)(CC2)CC3)C(c2cccc(Cl)c2F)C2(C(=O)Nc3cc(Cl)ccc32)C12CCCCC2
[1]
  pIC50: < 7.00
[2]
  pIC50: < 7.00
[3]
  pIC50: < 7.00
[4]
  pIC50: < 7.00
[5]
  pIC50: < 7.00
[6]
  pIC50: < 7.00
Second compound 0.00949 µM, first compound 0.000316 µM
  viability, T/C: 81.2%
Second compound 0.00949 µM, first compound 0.001 µM
  viability, T/C: 113%
Second compound 0.00949 µM, first compound 0.00316 µM
  viability, T/C: 91.4%
Second compound 0.00949 µM, first compound 0.01 µM
  viability, T/C: 109%
[7]
  viability, T/C: 84.8%
[8]
  viability, T/C: 90.7%
Second compound 0.03 µM, first compound 0.000316 µM
  viability, T/C: 93.7%
Second compound 0.03 µM, first compound 0.001 µM
  viability, T/C: 90.2%
Second compound 0.03 µM, first compound 0.00316 µM
  viability, T/C: 96.5%
Second compound 0.03 µM, first compound 0.01 µM
  viability, T/C: 93.8%
[13]
  viability, T/C: 98.5%
[14]
  viability, T/C: 101%
Second compound 0.0949 µM, first compound 0.000316 µM
  viability, T/C: 95.4%
Second compound 0.0949 µM, first compound 0.001 µM
  viability, T/C: 99.5%
Second compound 0.0949 µM, first compound 0.00316 µM
  viability, T/C: 90.2%
Second compound 0.0949 µM, first compound 0.01 µM
  viability, T/C: 96.5%
[19]
  viability, T/C: 98.5%
[20]
  viability, T/C: 90.3%
Second compound 0.3 µM, first compound 0.000316 µM
  viability, T/C: 98.9%
Second compound 0.3 µM, first compound 0.001 µM
  viability, T/C: 108%
Second compound 0.3 µM, first compound 0.00316 µM
  viability, T/C: 109%
Second compound 0.3 µM, first compound 0.01 µM
  viability, T/C: 110%
[25]
  viability, T/C: 91.1%
[26]
  viability, T/C: 103%
Second compound 0.949 µM, first compound 0.000316 µM
  viability, T/C: 89.2%
Second compound 0.949 µM, first compound 0.001 µM
  viability, T/C: 109%
Second compound 0.949 µM, first compound 0.00316 µM
  viability, T/C: 88%
Second compound 0.949 µM, first compound 0.01 µM
  viability, T/C: 105%
[31]
  viability, T/C: 106%
[32]
  viability, T/C: 97.4%
Second compound 3 µM, first compound 0.000316 µM
  viability, T/C: 113%
Second compound 3 µM, first compound 0.001 µM
  viability, T/C: 98.2%
Second compound 3 µM, first compound 0.00316 µM
  viability, T/C: 107%
Second compound 3 µM, first compound 0.01 µM
  viability, T/C: 110%
[37]
  viability, T/C: 119%
[38]
  viability, T/C: 109%

## CCN1C(C(=O)NC23CCC(C(=O)O)(CC2)CC3)C(c2cccc(Cl)c2F)C2(C(=O)Nc3cc(Cl)ccc32)C12CCCCC2 (stereo unspecified)
Compound 0.03 µM
  viability, T/C: 93.4% [middle of 9 runs]
Compound 0.949 µM
  viability, T/C: 100% [middle of 9 runs]
Compound 3 µM
  viability, T/C: 104% [middle of 9 runs]
Compound alone, run of 11/07/2022
  pIC50: < 5.52
Curve of compound
  pIC50: < 5.52
